Data taken from PubChem BioAssay (NCI).
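Five concentrations, 48 hours, 96-well plates. TGI: concentration producing complete growth inhibition.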

Columns and labels:
Test in all cases: NCI anticancer screen, dose series, 48 h
[1] = system: DLD-1 colon
[2] = system: DMS 114 small cell lung
[3] = system: HOP-18 NSCLC
[4] = system: KM20L2 colon
[5] = system: LXFL 529 NSCLC
[6] = system: M19-MEL melanoma
[7] = system: XF 498 CNS
[8] = system: MDA-N
[9] = system: RXF-631 renal

| Structure (SMILES) | TGI [1] | TGI [2] | TGI [3] | TGI [4] | TGI [5] | TGI [6] | TGI [7] | TGI [8] | TGI [9] |
| --- | --- | --- | --- | --- | --- | --- | --- | --- | --- |
| COC(=O)C1CCc2c1c(=O)n1c([nH]c3ccccc31)c2C#N (centres undefined) | > 100 µM | > 100 µM | > 100 µM | > 100 µM | > 100 µM | > 100 µM | > 100 µM |  |  |
| CC(C)(CN1CCCCC1)C(=O)/C=C/c1ccc(/C=C/C(=O)C(C)(C)CN2CCCCC2)cc1 | 0.323 µM | 1.95 µM | 2.57 µM | 1.65 µM | 0.682 µM | 2.35 µM | 1.28 µM | 0.401 µM |  |
| c1ccc([P+](CCSCCSCC[P+](c2ccccc2)(c2ccccc2)c2ccccc2)(c2ccccc2)c2ccccc2)cc1 |  |  |  |  |  |  |  | > 100 µM |  |
| COc1ccc(NC(=O)C(=O)c2c(O)c3ccc(O)cc3oc2=O)c([N+](=O)[O-])c1 | > 100 µM | > 100 µM |  | > 100 µM | > 100 µM | > 100 µM |  |  | > 100 µM |
| N#Cc1cc(C#N)c(N)nc1N |  |  |  |  |  |  |  | > 100 µM |  |
| COc1ccc(C/C(=N/O)C(=O)NCCc2cc(Br)c(OCCCN(C)C)c(Br)c2)cc1Br | 25.3 µM | 36.5 µM | 0.0986 µM | 40.6 µM | 29.7 µM | 33.8 µM | 25.6 µM |  |  |
| C[C@@H](NC1CCCC[C@H]1O)c1ccccc1 (some centres undefined) | > 100 µM |  | > 100 µM | > 100 µM |  | > 100 µM | > 100 µM |  |  |
| COc1cc(OC)c2c(c1)OC(c1ccccc1)CC2=O (centres undefined) |  |  |  |  |  |  |  | > 10 µM |  |
| COC(=O)CC(NC(=O)OCc1ccccc1)C(C(C)=O)C(=O)OCc1ccccc1 (centres undefined) | > 31.6 µM | > 31.6 µM | > 31.6 µM | > 31.6 µM | > 31.6 µM | > 31.6 µM |  |  |  |
| O=C(c1ccccc1)c1c(CC(O)c2ccccn2)n(C(=O)c2ccccc2)c2ccccc12 (centres undefined) | > 100 µM | 71.9 µM |  | 33.5 µM | > 100 µM | 40.1 µM | 46 µM |  |  |
| CC1=Nc2ccccc2S/C1=C(/C)NNS(=O)(=O)c1ccc(C)cc1 |  | > 100 µM | > 100 µM | > 100 µM | > 100 µM | > 100 µM |  |  | > 100 µM |
| COc1cc2c(cc1OC)[C@@H](Nc1ccc(C#N)cc1)C1COC(=O)[C@@H]1C2c1cc(OC)c(O)c(OC)c1 (some centres undefined) | 9.29 µM |  | 95 µM | 95 µM | 95 µM | 95 µM |  | > 100 µM |  |
| CCN(CC)C(=O)Cc1c(C(=O)N(CC)CC)c(=O)nc2sccn12 | > 100 µM | > 100 µM | > 100 µM | > 100 µM | > 100 µM | > 100 µM | > 100 µM |  |  |
| CNNC1=NS(=O)(=O)c2cc(C#N)c(Cl)cc2S1 |  |  |  |  |  |  |  | > 10 µM |  |
| CCOC(=O)C1Cc2c(cc3c4c(cccc24)N(C(C)=O)C3)N(C)C1 (centres undefined) |  |  |  |  |  |  |  | 3.29 µM |  |
| CC(C)(O)[C@@H]1CC[C@@]2(C)CCCC(O)C2(O)C1 (some centres undefined) | > 100 µM | > 100 µM | > 100 µM | > 100 µM | > 100 µM | > 100 µM | > 100 µM |  | > 100 µM |
| CC(=O)O[C@H]1C(=O)[C@@]2(C)C(C(OC(=O)c3ccccc3)[C@]3(O)C[C@H](OC(=O)C(OC(=O)CCCC(=O)NCCCN(C)C)C(NC(=O)c4ccccc4)c4ccccc4)C(C)=C1C3(C)C)C1(OC(C)=O)COC1C[C@@H]2O (some centres undefined) | > 40.9 µM | < 0.01 µM | 35 µM | < 0.01 µM | 20.9 µM | 17.3 µM | < 0.0171 µM | < 0.01 µM | > 100 µM |
| C=C=C(CC1CCCCC1=O)S(=O)(=O)c1ccccc1 (centres undefined) |  |  |  |  |  |  |  | > 10 µM |  |
| CCC(C)CCOC(=O)c1ccc(N=Cc2ccc(C=Nc3ccc(C(=O)OCCC(C)CC)cc3)cc2)cc1 (centres undefined) | > 100 µM | > 100 µM | > 100 µM | > 100 µM | > 100 µM |  |  |  |  |
| Cc1c(Cl)cccc1NC(=O)C(=O)C(C(=O)c1ccccc1-c1ccccc1)C1OC(=O)c2ccccc21 (centres undefined) | 49.1 µM | 43.5 µM |  | 51.4 µM | 27.9 µM | 34.8 µM | 29.3 µM |  | 71.6 µM |
| Cn1cc(C(=O)c2ccccc2)c2ccccc2c1=O | > 100 µM | > 100 µM |  |  | > 100 µM | > 100 µM | > 100 µM |  |  |
| COc1ccc(C2=C(Cl)c3cc(OC)c(OC)cc3C2OC)cc1OC (centres undefined) | 41.8 µM | > 100 µM | > 100 µM | > 100 µM | > 100 µM | > 100 µM | > 100 µM |  |  |
| O=C(NCCCCCCCCCCCCNC(=O)c1cccc2ccccc12)c1cccc2ccccc12 | > 100 µM | > 100 µM | > 100 µM | > 100 µM | > 100 µM | > 100 µM | > 75.8 µM |  | > 100 µM |
